One assay deals with Acetylcholinesterase (Homo sapiens, UniProt P22303). The experiment in a line: Inhibition of acetylcholinesterase.
In another assay the target is Cholinesterase (Homo sapiens, UniProt P06276). The experiment in a line: Inhibition of butyrylcholinesterase.
The subject of assay [1] is Rattus norvegicus. The experiment in a line: Antiamnesic activity in scopolamine-induced memory deficit rat assessed as training trial latency time at 0.02 mg/kg, ip. The assay is classed as functional. Particulars: route intraperitoneal.
In assay [2] the test system is Rattus norvegicus. The experiment in a line: Antiamnesic activity in scopolamine-induced memory deficit rat assessed as training trial latency time at 1.0 mg/kg, ip. As to conditions: route intraperitoneal. In kind it is functional.
The test system of assay [3] is Rattus norvegicus. The experiment in a line: Antiamnesic activity in scopolamine-induced memory deficit rat assessed as training trial latency time at 100 mg/kg, ip. Particulars: route intraperitoneal. The assay is classed as functional.
Assay [4] relates to Rattus norvegicus. The experiment in a line: Antiamnesic activity in scopolamine-induced memory deficit rat assessed as retention trial latency time at 0.02 mg/kg, ip after 24 hrs. The assay is classed as functional. As to conditions: route intraperitoneal.
The subject of assay [5] is Rattus norvegicus. The experiment in a line: Antiamnesic activity in scopolamine-induced memory deficit rat assessed as retention trial latency time at 1.0 mg/kg, ip after 24 hrs. Particulars: route intraperitoneal. The assay is classed as functional.
Assay [6] deals with Rattus norvegicus. The experiment in a line: Antiamnesic activity in scopolamine-induced memory deficit rat assessed as retention trial latency time at 100 mg/kg, ip after 24 hrs. The assay is classed as functional. As to conditions: route intraperitoneal.
The test system of assay [7] is Rattus norvegicus. The experiment in a line: Antiamnesic activity in scopolamine-induced memory deficit rat assessed as training trial time at 0.024 mg/kg, ip. The assay is classed as functional. Particulars: route intraperitoneal.
Assay [8] has as its system Rattus norvegicus. The experiment in a line: Antiamnesic activity in scopolamine-induced memory deficit rat assessed as training trial latency time at 0.24 mg/kg, ip. The assay is classed as functional. Particulars: route intraperitoneal.
For assay [9], the system named is Rattus norvegicus. The experiment in a line: Antiamnesic activity in scopolamine-induced memory deficit rat assessed as training trial latency time at 1.2 mg/kg, ip. The assay is classed as functional. As to conditions: route intraperitoneal.
Assay [10] has as its system Rattus norvegicus. The experiment in a line: Antiamnesic activity in scopolamine-induced memory deficit rat assessed as training trial latency time at 2.4 mg/kg, ip. The assay is classed as functional. Particulars: route intraperitoneal.
For assay [11], the system named is Rattus norvegicus. The experiment in a line: Antiamnesic activity in scopolamine-induced memory deficit rat assessed as retention trial latency time at 0.024 mg/kg, ip after 24 hrs. Particulars: route intraperitoneal. The assay is classed as functional.
In assay [12] the test system is Rattus norvegicus. The experiment in a line: Antiamnesic activity in scopolamine-induced memory deficit rat assessed as retention trial latency time at 0.24 mg/kg, ip after 24 hrs. In kind it is functional. As to conditions: route intraperitoneal.
Assay [13] has as its system Rattus norvegicus. The experiment in a line: Antiamnesic activity in scopolamine-induced memory deficit rat assessed as retention trial latency time at 1.2 mg/kg, ip after 24 hrs. As to conditions: route intraperitoneal. In kind it is functional.
The subject of assay [14] is Rattus norvegicus. The experiment in a line: Antiamnesic activity in scopolamine-induced memory deficit rat assessed as retention trial latency time at 2.4 mg/kg, ip after 24 hrs. In kind it is functional. Particulars: route intraperitoneal.
The subject of assay [15] is Rattus norvegicus. The experiment in a line: Antiamnesic activity in scopolamine-induced memory deficit rat assessed as training trial latency time at 17.37 mg/kg, ip. In kind it is functional. Particulars: route intraperitoneal.
Assay [16] has as its system Rattus norvegicus. The experiment in a line: Antiamnesic activity in scopolamine-induced memory deficit rat assessed as training trial latency time at 34.73 mg/kg, ip. The assay is classed as functional. As to conditions: route intraperitoneal.
The test system of assay [17] is Rattus norvegicus. The experiment in a line: Antiamnesic activity in scopolamine-induced memory deficit rat assessed as retention trial latency time at 17.37 mg/kg, ip after 24 hrs. In kind it is functional. As to conditions: route intraperitoneal.
In assay [18] the test system is Rattus norvegicus. The experiment in a line: Antiamnesic activity in scopolamine-induced memory deficit rat assessed as retention trial latency time at 34.73 mg/kg, ip after 24 hrs. The assay is classed as functional. Particulars: route intraperitoneal.
For assay [19], the system named is Rattus norvegicus. The experiment in a line: Antiamnesic activity in scopolamine-induced memory deficit rat assessed as training trial latency time at 0.01 mg/kg, ip. The assay is classed as functional. Particulars: route intraperitoneal.
Assay [20] has as its system Rattus norvegicus. The experiment in a line: Antiamnesic activity in scopolamine-induced memory deficit rat assessed as training trial latency time at 0.5 mg/kg, ip. In kind it is functional. Particulars: route intraperitoneal.
In assay [21] the test system is Rattus norvegicus. The experiment in a line: Antiamnesic activity in scopolamine-induced memory deficit rat assessed as training trial latency time at 50 mg/kg, ip. The assay is classed as functional. As to conditions: route intraperitoneal.
The test system of assay [22] is Rattus norvegicus. The experiment in a line: Antiamnesic activity in scopolamine-induced memory deficit rat assessed as retention trial latency time at 0.01 mg/kg, ip after 24 hrs. In kind it is functional. Particulars: route intraperitoneal.
In assay [23] the test system is Rattus norvegicus. The experiment in a line: Antiamnesic activity in scopolamine-induced memory deficit rat assessed as retention trial latency time at 0.5 mg/kg, ip after 24 hrs. In kind it is functional. Particulars: route intraperitoneal.
The subject of assay [24] is Rattus norvegicus. The experiment in a line: Antiamnesic activity in scopolamine-induced memory deficit rat assessed as retention trial latency time at 50 mg/kg, ip after 24 hrs. In kind it is functional. Particulars: route intraperitoneal.
Assay [25] concerns Rattus norvegicus. The experiment in a line: Antiamnesic activity in scopolamine-induced memory deficit rat assessed as training trial latency time at 0.001 mg/kg, ip. In kind it is functional. As to conditions: route intraperitoneal.
For assay [26], the system named is Rattus norvegicus. The experiment in a line: Antiamnesic activity in scopolamine-induced memory deficit rat assessed as training trial latency time at 0.005 mg/kg, ip. The assay is classed as functional. As to conditions: route intraperitoneal.
Assay [27] has as its system Rattus norvegicus. The experiment in a line: Antiamnesic activity in scopolamine-induced memory deficit rat assessed as training trial latency time at 0.1 mg/kg, ip. The assay is classed as functional. Particulars: route intraperitoneal.
Assay [28] deals with Rattus norvegicus. The experiment in a line: Antiamnesic activity in scopolamine-induced memory deficit rat assessed as retention trial latency time at 0.001 mg/kg, ip after 24 hrs. In kind it is functional. As to conditions: route intraperitoneal.
Assay [29] relates to Rattus norvegicus. The experiment in a line: Antiamnesic activity in scopolamine-induced memory deficit rat assessed as retention trial latency time at 0.005 mg/kg, ip after 24 hrs. As to conditions: route intraperitoneal. The assay is classed as functional.
Assay [30] concerns Rattus norvegicus. The experiment in a line: Antiamnesic activity in scopolamine-induced memory deficit rat assessed as retention trial latency time at 0.1 mg/kg, ip after 24 hrs. In kind it is functional. Particulars: route intraperitoneal.

What is called Ki is a measure of affinity in units of concentration, obtained from inhibition or displacement. High values mean lower affinity, low ones higher affinity.

Sequence of Cholinesterase (P06276 whole entry): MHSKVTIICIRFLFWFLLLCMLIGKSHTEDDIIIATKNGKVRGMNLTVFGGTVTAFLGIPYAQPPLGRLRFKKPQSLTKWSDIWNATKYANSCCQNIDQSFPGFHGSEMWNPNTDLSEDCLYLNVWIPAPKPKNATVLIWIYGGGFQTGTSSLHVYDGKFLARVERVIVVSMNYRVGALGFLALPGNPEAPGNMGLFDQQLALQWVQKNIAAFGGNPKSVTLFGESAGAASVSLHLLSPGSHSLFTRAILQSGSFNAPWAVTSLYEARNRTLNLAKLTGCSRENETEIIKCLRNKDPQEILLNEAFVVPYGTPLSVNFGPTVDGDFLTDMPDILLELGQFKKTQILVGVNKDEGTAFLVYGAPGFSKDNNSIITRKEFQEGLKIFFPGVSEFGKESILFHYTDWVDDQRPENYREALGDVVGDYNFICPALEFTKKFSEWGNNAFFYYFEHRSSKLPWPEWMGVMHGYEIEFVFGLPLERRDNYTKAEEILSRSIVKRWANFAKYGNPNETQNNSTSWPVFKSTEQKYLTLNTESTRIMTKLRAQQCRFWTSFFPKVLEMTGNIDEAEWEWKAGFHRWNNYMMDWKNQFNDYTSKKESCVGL
Sequence of Acetylcholinesterase (P22303 whole entry): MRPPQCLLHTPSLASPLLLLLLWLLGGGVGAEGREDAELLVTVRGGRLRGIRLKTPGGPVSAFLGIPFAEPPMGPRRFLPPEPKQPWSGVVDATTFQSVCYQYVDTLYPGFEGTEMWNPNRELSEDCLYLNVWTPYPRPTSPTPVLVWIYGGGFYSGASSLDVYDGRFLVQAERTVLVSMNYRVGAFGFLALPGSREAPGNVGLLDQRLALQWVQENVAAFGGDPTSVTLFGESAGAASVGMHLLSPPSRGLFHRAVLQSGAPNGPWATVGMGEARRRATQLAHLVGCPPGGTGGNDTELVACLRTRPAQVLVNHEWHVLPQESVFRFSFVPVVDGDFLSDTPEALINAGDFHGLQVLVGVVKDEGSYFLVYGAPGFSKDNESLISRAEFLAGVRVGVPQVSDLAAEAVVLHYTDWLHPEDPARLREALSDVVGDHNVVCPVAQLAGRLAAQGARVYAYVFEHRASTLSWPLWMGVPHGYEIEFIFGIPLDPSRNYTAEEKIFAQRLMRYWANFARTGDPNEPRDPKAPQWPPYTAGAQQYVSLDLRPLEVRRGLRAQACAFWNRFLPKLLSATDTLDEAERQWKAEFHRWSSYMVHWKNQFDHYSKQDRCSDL

Take `C[N+](C)(C)CCOC(=O)Nc1ccncc1.[I-]`: the Ki at Acetylcholinesterase worked out at 159 µM; at Cholinesterase it was 754 µM. Besides, the Time was determined as 37.3 s in the assay with Rattus norvegicus [1]; 21.4 s in the assay on Rattus norvegicus [2]; 30.6 s in the assay on Rattus norvegicus [3]; 40.4 s in the assay with Rattus norvegicus [4]; 21 s with Rattus norvegicus [5]; 21.3 s in the assay on Rattus norvegicus [6].
Turning to `C[N+](C)(C)CCOC(=O)Nc1ccncc1Br`, the values for the Ki on Acetylcholinesterase and on Cholinesterase were 116 µM and 274 µM, respectively.
Take `C[N+](C)(C)CCOC(=O)Nc1cc(Cl)nc(Cl)c1.[I-]`: the Ki at Acetylcholinesterase was found to be 64.4 µM; at Cholinesterase, 19.5 µM. Besides, the Time in the assay on Rattus norvegicus [7] stood at 14.4 s; with Rattus norvegicus [8], 19.7 s; in the assay with Rattus norvegicus [9], 21.4 s; with Rattus norvegicus [10], 19 s; with Rattus norvegicus [11], 36.8 s; with Rattus norvegicus [12], 56.9 s. For the same compound, the Time is listed as 92.9 s with Rattus norvegicus [13] and 32.3 s in the assay with Rattus norvegicus [14].
Turning to `CC(C)(C)C(=O)OCC[N+](C)(C)C.CC(C)(C)C(=O)[O-]`, the Time in the assay on Rattus norvegicus [15] is on record as 38.8 s; in the assay with Rattus norvegicus [16] it was 14.5 s; with Rattus norvegicus [17] it was 36.8 s; in the assay with Rattus norvegicus [18], 45.8 s.
As for `CN(C)CCOC(=O)Nc1ccnc(Cl)c1`, the results for the Ki at Acetylcholinesterase and on Cholinesterase were 208 µM and 380 µM, respectively.
The matching figures for `CN(C)CCOC(=O)Nc1ccncc1Br`: 316 µM and 273 µM.
As for `CN(C)CCOC(=O)Nc1ccncc1`, the values for the Ki on Acetylcholinesterase and on Cholinesterase were 314 µM and 20.4 µM, respectively. Besides, the Time is reported as 20.3 s with Rattus norvegicus [19]; 43.6 s in the assay on Rattus norvegicus [20]; 25.5 s with Rattus norvegicus [21]; 12.1 s in the assay with Rattus norvegicus [22]; 49.7 s in the assay on Rattus norvegicus [23]; 39.6 s with Rattus norvegicus [24].
Take `C[N+](C)(C)CCOC(=O)Nc1ccnc(Cl)c1`: the Ki turned out to be 151 µM at Acetylcholinesterase and 161 µM on Cholinesterase.
For `CN(C)CCOC(=O)Nc1cc(Cl)nc(Cl)c1`, in that order: 140 µM and 174 µM.
On to `Nc1ccncc1` [DALFAMPRIDINE], for which the Time in the assay on Rattus norvegicus [25] was 20.8 s; with Rattus norvegicus [26], 22.1 s; in the assay on Rattus norvegicus [19], 46.3 s; with Rattus norvegicus [27] it was 20.3 s; in the assay with Rattus norvegicus [28], 38.5 s; in the assay with Rattus norvegicus [29], 92.3 s. In addition, the Time in the assay on Rattus norvegicus [22] turned out to be 63.5 s; in the assay with Rattus norvegicus [30], 33.6 s.

(Values after ChEMBL document CHEMBL1140781, “4-Aminopyridine derivatives with anticholinesterase and antiamnesic activity” (Bioorg Med Chem Lett, 2008).)
